# Counter-ions that a name gives are not always drawn.
# Experiments:
# Type in all cases: in vivo
# mice [1] = experiment: Rotarod test (neuro-muscular coordination), groups of 5 mice, 2 minute test periods for 5 hours after dosage
# Description: (§1) In humans, this retention of coordination would avoid or reduce the disadvantages of loss of concentration and related side effects commonly associated with benzodiazepine drugs. The observation of this effect was made on groups of five mice subjected to a Rotarod test.
# female mice = experiment: 7-day median lethal dose (LD50) in female mice
# Description: (§2) The compounds in which R4 is furyl are of particular interest. Their psychotropic action is as disclosed above, but in addition their toxicity tends to be low. […] The higher toxicity at lower temperatures was thought to be caused by […] induced by the compound under test.
# [2] = 7-day median lethal dose (LD50) in female mice; conditions: mouse, in vivo, 7-day
# Description: as §2
# mice [3] = experiment: observation of sedation/tranquillization and hypnotic state in the mice of the Rotarod test
# Description: as §1
# *2/5 mice in hypnotic state - not returned to rotarod.
# [4] = diuretic activity at sedating dose; conditions: dose levels producing sedation (200 mg/Kg)
# Description: At a clinical dose level it can therefore be assumed that there would be no diuretic effect.
smiles,measurement,setting,value
"CN(C)CCCN1c2ccccc2Sc2ccc(Cl)cc21 [Chlorpromazine, reference compound]",Total Number of Falls,"mice [1]; 15 mg./kg., 0 mins. after dosage, 5 mice",0
same,Total Number of Falls,"mice [1]; 15 mg./kg., 15 mins. after dosage, 5 mice",1
same,Total Number of Falls,"mice [1]; 15 mg./kg., 30 mins. after dosage, 5 mice",0
same,Total Number of Falls,"mice [1]; 15 mg./kg., 45 mins. after dosage, 5 mice",5
same,Total Number of Falls,"mice [1]; 15 mg./kg., 60 mins. after dosage, 5 mice",13
same,Total Number of Falls,"mice [1]; 15 mg./kg., 90 mins. after dosage, 5 mice",17
same,Total Number of Falls,"mice [1]; 15 mg./kg., 120 mins. after dosage, 5 mice",14
same,Total Number of Falls,"mice [1]; 15 mg./kg., 180 mins. after dosage, 5 mice",9
same,Total Number of Falls,"mice [1]; 15 mg./kg., 240 mins. after dosage, 5 mice",13
same,Total Number of Falls,"mice [1]; 15 mg./kg., 300 mins. after dosage, 5 mice",9
"CN(C1=Nc2ccc(Cl)cc2C(c2ccccc2)=[N+]([O-])C1)C(O)c1ccco1 (stereo not shown) [SH60, 7-chloro-2-(N-methyl-N-1-hydroxyfurfurylamino)-5-phenyl-3H-1,4-benzodiazepine-4-oxide hydrochloride]",Total Number of Falls,"mice [1]; 20 mg./kg., 0 mins. after dosage, 5 mice",2
same,Total Number of Falls,"mice [1]; 20 mg./kg., 15 mins. after dosage, 5 mice",0
same,Total Number of Falls,"mice [1]; 20 mg./kg., 30 mins. after dosage, 5 mice",0
same,Total Number of Falls,"mice [1]; 20 mg./kg., 45 mins. after dosage, 5 mice",0
same,Total Number of Falls,"mice [1]; 20 mg./kg., 60 mins. after dosage, 5 mice",0
same,Total Number of Falls,"mice [1]; 20 mg./kg., 90 mins. after dosage, 5 mice",0
same,Total Number of Falls,"mice [1]; 20 mg./kg., 120 mins. after dosage, 5 mice",0
same,Total Number of Falls,"mice [1]; 20 mg./kg., 180 mins. after dosage, 5 mice",0
same,Total Number of Falls,"mice [1]; 20 mg./kg., 240 mins. after dosage, 5 mice",0
same,Total Number of Falls,"mice [1]; 20 mg./kg., 300 mins. after dosage, 5 mice",0
same,Total Number of Falls,"mice [1]; 100 mg./kg., 0 mins. after dosage, 5 mice",2
same,Total Number of Falls,"mice [1]; 100 mg./kg., 15 mins. after dosage, 5 mice",0
same,Total Number of Falls,"mice [1]; 100 mg./kg., 30 mins. after dosage, 5 mice",0
same,Total Number of Falls,"mice [1]; 100 mg./kg., 45 mins. after dosage, 5 mice",0
same,Total Number of Falls,"mice [1]; 100 mg./kg., 60 mins. after dosage, 5 mice",0
same,Total Number of Falls,"mice [1]; 100 mg./kg., 90 mins. after dosage, 5 mice",0
same,Total Number of Falls,"mice [1]; 100 mg./kg., 120 mins. after dosage, 5 mice",0
same,Total Number of Falls,"mice [1]; 100 mg./kg., 180 mins. after dosage, 5 mice",0
same,Total Number of Falls,"mice [1]; 100 mg./kg., 240 mins. after dosage, 5 mice",0
same,Total Number of Falls,"mice [1]; 100 mg./kg., 300 mins. after dosage, 5 mice",0
same,Total Number of Falls,"mice [1]; 200 mg./kg., 0 mins. after dosage, 5 mice",0
same,Total Number of Falls,"mice [1]; 200 mg./kg., 15 mins. after dosage, 5 mice",0
same,Total Number of Falls,"mice [1]; 200 mg./kg., 30 mins. after dosage, 5 mice",23
same,Total Number of Falls,"mice [1]; 200 mg./kg., 45 mins. after dosage, 5 mice",27
same,Total Number of Falls,"mice [1]; 200 mg./kg., 60 mins. after dosage, 5 mice",36
same,Total Number of Falls,"mice [1]; 200 mg./kg., 90 mins. after dosage, 5 mice",34
same,Total Number of Falls,"mice [1]; 200 mg./kg., 120 mins. after dosage, 5 mice",40
same,Total Number of Falls,"mice [1]; 200 mg./kg., 180 mins. after dosage, 2/5 mice in hypnotic state - not returned to rotarod",≥ 26
same,Total Number of Falls,"mice [1]; 200 mg./kg., 240 mins. after dosage, 2/5 mice in hypnotic state - not returned to rotarod",≥ 37
same,Total Number of Falls,"mice [1]; 200 mg./kg., 300 mins. after dosage, 2/5 mice in hypnotic state - not returned to rotarod",≥ 30
same,effect on muscular coordination,"mice [1]; mice, 20 mg/Kg",no apparent effect on muscular coordination
same,effect on muscular coordination,"mice [1]; mice, 100 mg/Kg",no apparent effect on muscular coordination
same,difficulty in maintaining balance on the rotating rod,"mice [1]; mice, 200 mg/Kg",all animals showed difficulty in maintaining balance on the rotating rod
same,neuro-muscular coordination,"mice [1]; mice, dose levels producing tranquilizing and sedative effects",normal neuro-muscular coordination
same,"toxicity, indicated by the LD50, compared with conventional and commercially used benzodiazepine drugs",female mice,significantly lower than that of conventional and commercially used benzodiazepine drugs
same,LD50 at 168 h,[2]; at 23° C,900 mg/kg
same,LD50 at 168 h,[2]; at 30° C,1080 mg/kg
same,mice in hypnotic state - not returned to rotarod,"mice [3]; 200 mg./kg., footnote to 180, 240 and 300 mins. after dosage",2/5
same,sedation/tranquillization,"mice [3]; mice, 20 mg/Kg",apparent sedation/tranquillization
same,sedation/tranquillization,"mice [3]; mice, 100 mg/Kg",apparent sedation/tranquillization
same,sedation,"mice [3]; mice, 200 mg/Kg, after 30 minutes",marked sedation
same,diuretic activity,[4],minimal diuretic activity

# From patent US4060608A, “Substituted hydroxymethyl benzodiazepines” (DDSA Pharmaceuticals, priority 1975, dated 1977)
